Data on ten molecules can be found in ChEMBL document CHEMBL4842377, “Synthesis and biological evaluation of selective histone deacetylase 6 inhibitors as multifunctional agents against Alzheimer's disease” (Eur J Med Chem, 2021).

Bounds are passed on as bounds.

As a reminder, the IC50 is the concentration that gives 50% inhibition. Higher therefore signals lower potency.

In this test the target is T1, Protein deacetylase HDAC6 (Homo sapiens, UniProt Q9UBN7).
T1 sequence (Q9UBN7 whole entry): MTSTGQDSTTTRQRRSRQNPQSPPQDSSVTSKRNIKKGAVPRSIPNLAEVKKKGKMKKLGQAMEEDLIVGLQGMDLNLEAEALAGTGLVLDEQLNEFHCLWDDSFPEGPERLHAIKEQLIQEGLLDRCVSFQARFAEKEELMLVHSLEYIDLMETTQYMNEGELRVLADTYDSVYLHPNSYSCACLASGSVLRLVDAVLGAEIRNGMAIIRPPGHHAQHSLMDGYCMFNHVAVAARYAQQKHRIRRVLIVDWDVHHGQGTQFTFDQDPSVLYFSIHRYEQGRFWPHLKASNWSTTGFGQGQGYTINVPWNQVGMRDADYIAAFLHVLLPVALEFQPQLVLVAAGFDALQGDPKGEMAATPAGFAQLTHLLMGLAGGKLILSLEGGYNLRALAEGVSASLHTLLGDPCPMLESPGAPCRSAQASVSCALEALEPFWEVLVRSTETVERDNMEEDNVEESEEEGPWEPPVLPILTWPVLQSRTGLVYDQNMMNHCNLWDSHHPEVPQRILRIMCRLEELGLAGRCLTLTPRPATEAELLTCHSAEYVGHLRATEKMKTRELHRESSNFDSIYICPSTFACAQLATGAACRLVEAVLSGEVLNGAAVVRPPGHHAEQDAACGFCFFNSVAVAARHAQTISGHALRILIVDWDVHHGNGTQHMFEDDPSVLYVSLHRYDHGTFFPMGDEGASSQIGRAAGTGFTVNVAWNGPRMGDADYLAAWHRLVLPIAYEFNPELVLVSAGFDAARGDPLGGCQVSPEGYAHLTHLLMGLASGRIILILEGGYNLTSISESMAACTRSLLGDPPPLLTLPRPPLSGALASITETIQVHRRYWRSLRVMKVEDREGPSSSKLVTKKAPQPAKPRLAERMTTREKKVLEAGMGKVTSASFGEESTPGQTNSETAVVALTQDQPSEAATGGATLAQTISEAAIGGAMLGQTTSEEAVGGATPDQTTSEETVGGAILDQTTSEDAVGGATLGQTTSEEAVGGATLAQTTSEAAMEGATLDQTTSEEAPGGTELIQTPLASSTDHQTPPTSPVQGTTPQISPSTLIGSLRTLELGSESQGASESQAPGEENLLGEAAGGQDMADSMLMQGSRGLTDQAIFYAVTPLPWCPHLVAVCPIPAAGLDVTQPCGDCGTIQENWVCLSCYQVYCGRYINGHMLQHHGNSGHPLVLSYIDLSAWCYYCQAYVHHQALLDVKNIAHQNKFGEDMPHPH
In words: Inhibition of human HDAC6 using fluorogenic substrate incubated for 1 hrs by fluorescence plate reader assay.

Take `CNC(=O)c1ccc(CN(C)C23CC4C[C@@](C)(C2)C[C@](C)(C4)C3)nc1`: the IC50 is above 1000 nM.

As for `O=C(CCc1ccc(CN2c3ccccc3Sc3ccccc32)cc1)NO`, the IC50 amounted to 343 nM.

In turn, `O=C(/C=C/c1ccc(CN2c3ccccc3Sc3ccccc32)cc1)NO` gave an IC50 of 463 nM.

`O=C(NO)c1ccc(CN2c3ccccc3Sc3ccccc32)nc1` gave an IC50 of 11 nM.

On to `CNC(=O)c1ccc(CN2c3ccccc3Sc3ccccc32)nc1`, for which the IC50 was above 1000 nM.

Regarding `O=C(Cn1cc(CN2c3ccccc3Sc3ccccc32)cn1)NO`, the IC50 is above 1000 nM.

`COc1ccc2c(c1)c1c(n2Cc2ccc(C(=O)NO)cn2)CCN(C)C1` had an IC50 of 53 nM.

Turning to `Cc1ccc2c(c1)c1c(n2Cc2ccc(C(=O)NO)cn2)CCN(C)C1`, the IC50 was 83 nM.

In the case of `C[C@]12CC3CC(NCc4ccc(C(=O)NO)cn4)(C1)C[C@@](C)(C3)C2`, 537 nM corresponded to half-maximal inhibition (IC50).

In turn, `CCNC(=O)c1ccc(CN2c3ccccc3Sc3ccccc32)nc1` came in with an IC50 above 1000 nM.
